Measurements published in patent US20060111388A1, “Phenanthroline and derivatives thereof used to lower intraocular pressure in an affected eye” (University of North Texas Health Science Center at Fort …, priority 2004, published 2006).
Each block holds one molecule with its values, some of them ahead of it.

Legend:
[1] = test system: Morrison rat model eye with elevated intraocular pressure; test: Morrison rat model for glaucoma, IOP by tonometer after topical application; format: in vivo
Text: The Intraocular Pressure (“IOP”) in a rat eye was lowered following treatment of the eye with about a 1% (w/v) phenanthroline solution. Briefly, the IOP was elevated in one eye for rats grouped as specified below by using the method as described by Morrison et al (1997). […] The other eyes was used as a control. Rats were housed post-surgically in constant low light (<90 lux) to minimize effects of circadian influences on IOP. Five rats were used per treatment group.
A solution of 1,7-phenanthroline was prepared by dissolving 10 mg of 1,7-phenanthroline in 32 μl methanol (100%) forming a concentrated 1,7-phenanthroline solution. About 3 μl of the concentrated 1,7-phenanthroline solution was then added to 96 μl of saline (0.9% NaCl) to form a working 1,7-phenanthroline solution. The working 1,7-phenanthroline solution was then used in the eye of the Morrison Model of Glaucoma. The average intraocular pressure (IOP) in Morrison model eye was 26.22 (average of nine readings) prior to application of the working 1,7-phenanthroline solution. In contrast, the IOP measured 6 hr after application of the working 1,7-phenanthroline solution dropped to 25.66, as shown in FIG. 6A.
(§1) A solution of 4,7-dihydroxy-1,10-phenanthroline was prepared by dissolving 7 mg of 4,7-dihydroxy-1,10-phenanthroline in 22 μl methanol, 30 μl 1 N NaOH, and 626 μl of saline (0.9% NaCl) forming a 4,7-dihydroxy-1,10-phenanthroline solution having a pH of about 10.42. […] The 4,7-dihydroxy-1,10-phenanthroline solution was centrifuged at 10,000×g for about 5 min to remove the precipitate. The clear supernatant was removed and used for testing the Morrison model eye. The average intraocular pressure (IOP) in the eye with elevated pressure was 27.77 (average of nine readings) prior to application of the drug.
(§2) A solution of 1,10-phenanthroline 5,6-dione was prepared by dissolving 7 mg of 1,10-phenanthroline 5,6-dione in 44 μl methanol, and 88 μl dimethylsulfoxide (DMSO). […] The 1,10-phenanthroline 5,6-dione solution with precipitate was centrifuged at 10,000×g for 5 min, and the clear supernatant was removed. 6 μl of the supernatant plus 97 μl of saline formed the working solution used in the Morison model of glaucoma. The average intraocular pressure (IOP) in eye with elevated pressure was 27.66 (average of nine readings) prior to application of the drug.

[2] = Solubility observed while preparing the test solution; format: physicochemical
Procedure: as §1, §2

[3] = test system: patients; conditions: patients treated with latanoprost; cited from earlier work
[4] = target: T1, thermolysin (Bacillus thermoproteolyticus, UniProt P00800); conditions: reversible inhibitor; cited from earlier work
T1 sequence (P00800 233-548): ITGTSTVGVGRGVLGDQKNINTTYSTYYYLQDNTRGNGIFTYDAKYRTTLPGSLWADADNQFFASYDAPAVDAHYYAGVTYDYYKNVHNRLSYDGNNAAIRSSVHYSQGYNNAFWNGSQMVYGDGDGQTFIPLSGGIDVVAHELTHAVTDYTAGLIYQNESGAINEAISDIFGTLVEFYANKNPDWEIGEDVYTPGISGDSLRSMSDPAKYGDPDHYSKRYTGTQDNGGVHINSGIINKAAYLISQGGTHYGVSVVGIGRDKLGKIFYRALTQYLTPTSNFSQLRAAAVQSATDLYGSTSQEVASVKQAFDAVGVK

SMILES: c1cnc2c(c1)ccc1ncccc12 [1,7-phenanthroline]
- IOP measured 6 hr after application (FIG. 6A) ([1]; working solution: 10 mg in 32 μl methanol, 3 μl added to 96 μl saline, average IOP 26.22 (nine readings) prior to application): 25.66

- solubility in methanol and DMSO ([2]; 7 mg in 44 μl methanol and 88 μl dimethylsulfoxide): the entire drug was not solubilized
SMILES: O=C1C(=O)c2cccnc2-c2ncccc21 [1,10-phenanthroline 5,6-dione]
- IOP measured 6 hr after application (FIG. 6C) ([1]; 6 μl supernatant (7 mg in 44 μl methanol, 88 μl DMSO) plus 97 μl saline, average IOP 27.66 (nine readings) prior to application): 25.44

- solubility on adjusting solution from pH about 10.42 to pH 7.7 ([2]; 7 mg in 22 μl methanol, 30 μl 1 N NaOH, 626 μl saline, 1N HCl): some precipitation of the drug
SMILES: Oc1ccnc2c1ccc1c(O)ccnc12 [4,7-dihydroxy-1,10-phenanthroline]
- IOP measured 6 hr after application (FIG. 6B) ([1]; clear supernatant of 7 mg in 22 μl methanol, 30 μl 1 N NaOH, 626 μl saline, adjusted to pH 7.7, average IOP 27.77 (nine readings) prior to application): 26.22

SMILES: CC(C)OC(=O)CCC/C=C\C[C@@H]1[C@@H](CC[C@@H](O)CCc2ccccc2)[C@H](O)C[C@@H]1O [latanoprost, Latanoprost]
- increased iris pigmentation, share of patients [3]: up to one in six

SMILES: c1cnc2c(c1)ccc1cccnc12 [phenanthroline, 1,10-phenanthroline]
- intraocular pressure (FIG. 4) ([1]; 1% (w/v) in saline, 20-25 μl topically once, 22 and 27 days following surgery, cohort 2-4-04, IOP measured after 1 hour and 6 hours): decreased
- intraocular pressure (FIG. 5) ([1]; 1% phenanthroline, 27 days following surgery, ID#1-17-48 in cohort 2-4-04): decreased
- Ki [4]: 40 µM
